Assay results published in US8586505B2 (SDS Biotech K. K., priority 2009, dated 2013).

Experiments:
Assay type in all cases: in vivo
[1] = test system: Pseudoperonospora cubensis; assay: Test of examining control effect on Pseudoperonospora cubensis (potted cucumber plants); settings: 96 h, 10% wettable powder adjusted to 125 ppm, 15 ml/pot sprayed on potted cucumber plants one day before spray inoculation, assessed after 1 day wet chamber and 3 days greenhouse, read-out: Determination of control effect (preventive value) on Pseudoperonospora cubensis
Experimental: (§1) Calculation of Preventive Value: Preventive value={(untreated lesion area rate−treated lesion area rate)/untreated lesion area rate}×100
(§2) Using the thus calculated preventive value, the control effect of each compound was determined in accordance with the following standards.
(§3) High control effect: 100%≧preventive value≧60%
(§4) Low control effect: 60%>preventive value≧0%
Using a spray gun, an agent solution prepared by adjusting a 10% wettable powder of each sample compound to 125 ppm (hereinafter referred to as a “sample agent solution”) was sprayed to potted cucumber plants (variety: Sagamihanjiro, 2.5 leave stage) in a concentration of 15 ml/pot. One day after the spraying, a conidial suspension of Pseudoperonospora cubensis (conidial concentration: 1.0×10^4 cells/ml) was applied to the plants by spray inoculation. After completion of the inoculation, the plants were left at 21° C. under wet chamber conditions for 1 day, and were then left in a greenhouse for 3 days, so that they were fully infected with the aforementioned disease. Thereafter, the disease level on each leaf was compared with that on an untreated leaf, and the control effect of each compound was determined in the same manner as in Example 3(1).

Sphaerotheca fuliginea = assay: Test of examining control effect on Sphaerotheca fuliginea (potted cucumber plants); settings: Podosphaera fuliginea, 336 h; 10% wettable powder adjusted to 125 ppm, 15 ml/pot sprayed on potted cucumber plants one day before spray inoculation; assessed after 14 days in greenhouse; read-out: Determination of control effect (preventive value) on Sphaerotheca fuliginea
Experimental: as §1, §2, §3, §4
Using a spray gun, an agent solution prepared by adjusting a 10% wettable powder of each sample compound to 125 ppm (hereinafter referred to as a “sample agent solution”) was sprayed to potted cucumber plants (variety: Sagamihanjiro, 2nd leave stage) in a concentration of 15 ml/pot. One day after the spraying, a conidial suspension of Sphaerotheca fuliginea (conidial concentration: 1.0×10^5 cells/ml) was applied to the plants by spray inoculation. The plants were left in a greenhouse for 14 days, so that they were fully infected with the aforementioned disease. Thereafter, the disease level on each leaf was compared with that on an untreated leaf, and the control effect of each compound was determined in the same manner as in Example 3(1).

Phytophthora infestans = assay: whole plant or invertebrate; settings: in Solanum lycopersicum, 96 h, read-out: Determination of control effect (preventive value)

| SMILES | pest or weed control at 125 µg/mL [1] | pest or weed control at 125 µg/mL (Sphaerotheca fuliginea) | pest or weed control at 125 ppm (Phytophthora infestans) |
| --- | --- | --- | --- |
| O=C(O)c1ccc(C#CCCNc2ncnc3ccccc23)cc1 [compound 127] | 60 to 100% | 60 to 100% | 60 to 100% |
| CC(=O)c1ccc(C#CCCNc2ncnc3ccccc23)cc1 [compound 128] | 60 to 100% | 60 to 100% | 60 to 100% |
| CC(CC#Cc1ccccc1C(F)(F)F)Nc1ncnc2c(F)cccc12 (stereo not drawn) [compound 343] | 60 to 100% | 60 to 100% | 60 to 100% |
| CCOC(OCC)c1ccc(C#CCCNc2ncnc3ccccc23)cc1 [compound 151] | 60 to 100% | 60 to 100% | 60 to 100% |
| C(#Cc1ccc2ccccc2n1)CCNc1ncnc2ccccc12 [compound 188] | 60 to 100% | 0 to 60% | 0 to 60% |
| COCc1cccc(F)c1C#CCCNc1ncnc2ccccc12 [compound 141] | 60 to 100% | 60 to 100% | 60 to 100% |
| FC(F)(F)c1ccccc1C#CCCNc1ncnc2ccc(Cl)cc12 [compound 309] | 60 to 100% | 60 to 100% | 0 to 60% |
| C=CC(CC#Cc1ccccc1)Nc1ncnc2ccccc12 (stereo not drawn) [compound 296] | 60 to 100% | 60 to 100% | 60 to 100% |
| Fc1ccccc1C#CCCNc1ncnc2sccc12 [compound 11] | 60 to 100% | 60 to 100% | 60 to 100% |
| Fc1ccccc1Oc1nc(C#CCCNc2ncnc3ccccc23)cs1 [compound 224] | 60 to 100% | 60 to 100% | 60 to 100% |
| CC(CC#Cc1ccccc1)Nc1ncnc2ccccc12 (stereo not drawn) [compound 270] | 60 to 100% | 60 to 100% | 0 to 60% |
| COCc1ccccc1C#CCCNc1ncnc2ccc([N+](=O)[O-])cc12 [compound 331] | 60 to 100% | 0 to 60% | 0 to 60% |
| COC(OC)c1ccccc1C#CCCNc1ncnc2ccccc12 [compound 149] | 0 to 60% | 0 to 60% | 0 to 60% |
| CCCC(CC#Cc1ccccc1)Nc1ncnc2sccc12 (stereo not drawn) [compound 268] | 60 to 100% | 60 to 100% | 0 to 60% |
| COCc1ccccc1C#CCCNc1ncnc2ncccc12 [compound 380] | 60 to 100% | 60 to 100% | 60 to 100% |
| Fc1cccc(C#CCCNc2ncnc3sccc23)c1 [compound 12] | 60 to 100% | 60 to 100% | 0 to 60% |
| COc1ccccc1C#CCCNc1ncnc2sccc12 [compound 21] | 60 to 100% | 0 to 60% | 60 to 100% |
| FC(F)(F)c1ccccc1C#CCCNc1ncnc(Cl)c1Br [compound 367] | 60 to 100% | 60 to 100% | 0 to 60% |
| Cc1c(Cl)ncnc1NCCC#Cc1ccccc1C(F)(F)F [compound 364] | 60 to 100% | 60 to 100% | 0 to 60% |
| COc1ccccc1Oc1nc(C#CCCNc2ncnc3ccccc23)cs1 [compound 215] | 60 to 100% | 60 to 100% | 60 to 100% |
| CC(CC#Cc1c(Cl)cccc1C(F)(F)F)Nc1ncnc2sccc12 (stereo not drawn) [compound 252] | 60 to 100% | 60 to 100% | 0 to 60% |
| CC(CC#Cc1ccccc1)Nc1ncnc(C(C)F)c1I (stereo not drawn) [compound 381] | 60 to 100% | 60 to 100% | 60 to 100% |
| CC(CC#Cc1c(Cl)cccc1Cl)Nc1ncnc2sccc12 (stereo not drawn) [compound 251] | 60 to 100% | 60 to 100% | 0 to 60% |

| SMILES | pest or weed control at 125 µg/mL [1] | pest or weed control at 125 µg/mL (Sphaerotheca fuliginea) | pest or weed control at 125 ppm (Phytophthora infestans) |
| --- | --- | --- | --- |
| CC(C)CC#CCCNc1ncnc2sccc12 [compound 7, 4-(6-Methyl-3-heptynylamino)thieno[2,3-d]pyrimidine] | 60 to 100% | 60 to 100% | 60 to 100% |
| C#CCCNc1ncnc2sccc12 [compound 1, 4-(3-butynylamino)thieno[2,3-d]pyrimidine] | 0 to 60% | 0 to 60% | 0 to 60% |
| COC(=O)N(OC)c1ccccc1C#CCCNc1ncnc2ccccc12 [compound 125] | 60 to 100% | 0 to 60% | 60 to 100% |
| CC(CC#Cc1ccc(F)cc1)Nc1ncnc2sccc12 (stereo not drawn) [compound 230] | 60 to 100% | 60 to 100% | 60 to 100% |
| CC(CC#Cc1ccc(F)cc1CO)Nc1ncnc2sccc12 (stereo not drawn) [compound 244] | 60 to 100% | 60 to 100% | 60 to 100% |
| Cn1cc(C#CCCNc2ncnc3ccccc23)ccc1=O [compound 203] | 60 to 100% | 0 to 60% | 0 to 60% |
| COc1nc(C#CCCNc2ncnc3sccc23)cs1 [compound 67] | 60 to 100% | 60 to 100% | 60 to 100% |
| Cc1ccc(C#CCC(C)Nc2ncnc3ccccc23)cc1 (stereo not drawn) [compound 279] | 60 to 100% | 60 to 100% | 60 to 100% |
| C(#Cc1csc(Cc2ccccc2)n1)CCNc1ncnc2sccc12 [compound 75, 4-[4-(2-Benzylthiazol-4-yl)-3-butynylamino]thieno[2,3-d]pyrimidine] | 60 to 100% | 60 to 100% | 60 to 100% |
| Fc1ccc(C#CCCNc2ncnc3ccccc23)c(C(F)(F)F)c1 [compound 169] | 60 to 100% | 60 to 100% | 60 to 100% |
| Cc1cccc2c(NC(C)CC#Cc3ccc(Cl)cc3C(F)(F)F)ncnc12 (stereo not drawn) [compound 354] | 60 to 100% | 60 to 100% | 0 to 60% |
| CCOCc1ccccc1C#CCCNc1ncnc2ccccc12 [compound 153] | 60 to 100% | 0 to 60% | 60 to 100% |
| COCc1cc(C)ccc1C#CCCNc1ncnc2ccccc12 [compound 145] | 60 to 100% | 60 to 100% | 60 to 100% |
| CC(CC#Cc1ccc(Cl)cc1C(F)(F)F)Nc1ncnc2ccc(F)cc12 (stereo not drawn) [compound 345] | 60 to 100% | 60 to 100% | 0 to 60% |
| COCc1ccccc1C#CCCNc1ncnc2cc(F)ccc12 [compound 316] | 60 to 100% | 60 to 100% | 60 to 100% |
| COCc1cc(Cl)ccc1C#CCCNc1ncnc2ccccc12 [compound 140] | 60 to 100% | 60 to 100% | 60 to 100% |
| Fc1cccc2c(NCCC#Cc3ccccc3C(F)(F)F)ncnc12 [compound 306] | 60 to 100% | 60 to 100% | 60 to 100% |
| CC(CC#Cc1ccc(Cl)c(C(F)(F)F)c1)Nc1ncnc2sccc12 (stereo not drawn) [compound 254] | 60 to 100% | 0 to 60% | 0 to 60% |
| CCC(CC#Cc1ccc(F)cc1)Nc1ncnc2ccccc12 (stereo not drawn) [compound 294] | 60 to 100% | 60 to 100% | 0 to 60% |
| CC(CC#Cc1ccccc1)Nc1ncnc2sccc12 (stereo not drawn) [compound 229] | 60 to 100% | 60 to 100% | 0 to 60% |
| C=Cc1ccc(C#CCCNc2ncnc3ccccc23)cc1 [compound 110] | 60 to 100% | 60 to 100% | 60 to 100% |
| COc1ccc2cc(C#CCCNc3ncnc4ccccc34)ccc2c1 [compound 184] | 60 to 100% | 60 to 100% | 60 to 100% |
